Results published in patent US4855308A, “Method of treating senile cognitive decline with N'-substituted aminopyridine adrenergic agents” (Warner-Lambert Company, priority 1987, dated 1989).
Where two headings read alike, the source gives them in different places.

Assays:
[1] = test system: scopolamine-induced swimming hyperactivity; test: scopolamine induced swimming test (SIS), reversal of scopolamine-induced swimming hyperactivity; type: in vivo, laboratory rats (b65); mice (b66); settings: for inhibition in vivo at 0.32 mg/kg / inhibition in vivo at 3.2 mg/kg / inhibition in vivo at 32 mg/kg: Rattus norvegicus; for inhibition in vivo at 0.32 mg/kg: read-out: Percent Reversal Swimming Hyperactivity, Dose 0.32 mg/kg, SC; for inhibition in vivo at 3.2 mg/kg: read-out: Percent Reversal Swimming Hyperactivity, Dose 3.2 mg/kg, SC; for inhibition in vivo at 32 mg/kg: read-out: Percent Reversal Swimming Hyperactivity, Dose 32 mg/kg, SC; for reversal of scopolamine swimming hyperactivity: scopolamine-treated rats
Procedure: The biological activity of compounds of the present invention was evaluated using the "scopolamine induced swimming test" (SIS). This screen evaluated the ability of the test compounds to reverse the hyperactive swimming behavior of laboratory rats given scopolamine. in this test, untreated rats will generally swim between 20 to 30 meters during a five-minute test period. […] We have discovered unexpectedly that α2-adrenergic antagonists including the compounds in this application also reverse this swimming hyperactivity, perhaps through indirect stimulation of the cholinergic system.
SIS values are reported as the percent reversal of scopolamine, and are determined as follows: [formula] where U, SDT, and ST represent, respectively, the mean activity level in meters swum of untreated, scopolamine-and-drug-treated, and scopolamine-treated mice.

[2] = target: α1-adrenergic binding site; test: binding at the α1-adrenergic binding site; settings: read-out: α1 IC50 (Nanomolar)
Procedure: (§1) The binding of representative compounds of this invention at the α1-adrenergic binding site was measured using the protocol described by Hornung, R., et al, Archiv. Pharm., 308:223 (1979). Similarly, the binding at the α2:adrenergic binding site was measured using the method of Rouot, B. R., et al, Life Sci., 25: 769 (1979). The data are presented in Table 2 and illustrate the α2 selectivity of the compounds.

[3] = test system: α2-adrenergic binding site; test: binding at the α2-adrenergic binding site; settings: for α1/α2: ratio of IC50 α1/α2; for IC50: read-out: α2 IC50 (Nanomolar)
Procedure: The α2 binding sites are presynaptic and are involved in the control of release of norepinephrine. A compound which acts selectively as an α2-adrenergic antagonist acts to increase noradrenergic activity. Such increases in noradrenergic activity are related to improved cognitive function in animals.
as §1

[4] = test system: spatial working memory in hippocamally-deficient mice; test: Mouse Water Maze (MWM) test; type: in vivo, laboratory mice; settings: read-out: minimal effective dose (MED)
Procedure: This compound was tested in the Mouse Water Maze (MWM) test which is a direct test of spatial cognitive skill in laboratory mice. This test, which is described in Morris, R., J. Neurosci. Meth., 11: 47-60 (1984), measures the effect of a test drug on spatial working memory in hippocamally-deficient mice.

[5] = 0.32 mg/kg, SC, vs scopolamine 0.1 mg/kg, five-minute test
[6] = 3.2 mg/kg, SC, vs scopolamine 0.1 mg/kg, five-minute test
[7] = 32 mg/kg, SC, vs scopolamine 0.1 mg/kg, five-minute test

Row | Structure (SMILES) | inhibition in vivo at 0.32 mg/kg [1, 5] [%] | inhibition in vivo at 3.2 mg/kg [1, 6] [%] | inhibition in vivo at 32 mg/kg [1, 7] [%] | other results
1 | Nc1ccccc1Nc1ccncc1 [Compound 9, N-4-Pyridinyl-1,2-benzenediamine] | 15 | 18 | 72 | 
2 | FC(F)(F)c1cccc(Nc2ccncc2)c1 [Compound 5, N-[3-(Trifluoromethyl)phenyl]-4-pyridin-amine] | 0 | 0 | 57 | 
3 | O=[N+]([O-])c1cc(Nc2ccncc2)ccc1Cl [Compound 15, N-(4-Chloro-3-nitrophenyl)-4-pyridinamine] | 26 | 0 | 0 | 
4 | CNC(=O)Oc1ccc2c(c1)[C@]1(C)CCN(C)[C@@H]1N2C [physostigmine, reference compound] |  |  |  | reversal of scopolamine swimming hyperactivity [1]: can be reversed
5 | c1ccc(Nc2ccncc2)cc1 [Compound 1, N-Phenyl-4-pyridinamine] | 27 | 22 | 57 | 
6 | Clc1ccc(Nc2ccncc2)c(Cl)c1 [Compound 13, N-(2,4-Dichlorophenyl)-4-pyridinamine] | 0 | 24 | 0 | 
7 | Cc1ccc(Nc2ccncc2)c([N+](=O)[O-])c1 [Compound 16, N-(4-Methyl-2-nitrophenyl)-4-pyridinamine] | 0 | 3 | 14 | 
8 | COC(=O)C1=CCCN(C)C1 [arecoline, reference compound] |  |  |  | reversal of scopolamine swimming hyperactivity [1]: can be reversed
9 | COC(=O)c1cccc(Nc2ccncc2)c1 [Compound 12, 3-(4-Pyridinylamino)benzoic acid, methyl ester] | 15 | 0 | 8 | 
10 | Cc1ccc(Nc2ccncc2)cc1 [Compound 3, N-(4-Methylphenyl)-4-pyridinamine] | 10 | 25 | 100 | IC50 [2]: 1.6 µM; α1/α2 [3]: 43; IC50 [3]: 37 nM
11 | O=[N+]([O-])c1cccc(Nc2ccncc2)c1 [Compound 8, N-(3-Nitrophenyl)-4-pyridinamine] | 40 | 39 | 70 | 
12 | Nc1cccc(Nc2ccncc2)c1 [Compound 10, N-4-Pyridinyl-1,3-benzenediamine] | 47 | 0 | 41 | 
13 | CC(=O)N(c1ccncc1)c1ccc(C)cc1 [Compound 17, N-(4-Methylphenyl)-N-4-pyridinylacetamide] | 35 | 56 | 21 | IC50 [2]: > 10 µM; α1/α2 [3]: > 1.9; IC50 [3]: 5400 nM
14 | C[N+]1(C)C2CC(OC(=O)C(CO)c3ccccc3)CC1C1OC12 (stereo not shown) [scopolamine methyl nitrate, reference compound] |  |  |  | behavioral changes ([1]; same conditions as scopolamine): does not produce any behavioral changes
15 | CN(C)c1cccc(Nc2ccncc2)c1 [Compound 11, N,N-Dimethyl-N'-4-pyridinyl-1,3-benzene-diamine] | 15 | 4 | 61 | 
16 | CC(=O)N(c1ccncc1)c1ccc(Cl)c(Cl)c1 [Compound 18, N-(3,4-Dichlorophenyl)-N-4-pyridinylacet-amide] | 33 | 34 | 30 | 
17 | FC(F)(F)c1ccc(Nc2ccncc2)cc1 [Compound 6, N-[4-(Trifluoromethyl)phenyl]-4-pyridin-amine] | 0 | 16 | 55 | 
18 | CN1[C@@H]2C[C@@H](OC(=O)[C@H](CO)c3ccccc3)C[C@H]1[C@@H]1O[C@@H]12 [scopolamine, reference compound] |  |  |  | increase of swimming distances above baseline values ([1]; scopolamine 0.1 mg/kg, five-minute test period, rats): 75-125%
19 | Clc1ccc(Nc2ccncc2)cc1Cl [Compound 14, N-(3,4-Dichlorophenyl)-4-pyridinamine] | 31 | 37 | 64 | IC50 [2]: > 1 µM; α1/α2 [3]: > 8.5; IC50 [3]: 118 nM
20 | Cc1cccc(Nc2ccncc2)c1 [Compound 2, N-(3-Methylphenyl)-4-pyridinamine] | 52 | 36 | 66 | 
21 | CN(C)C(=O)Oc1cccc([N+](C)(C)C)c1 [neostigmine, reference compound] |  |  |  | reversal of scopolamine swimming hyperactivity [1]: does not reverse the effect of scopolamine
22 | COc1cccc(Nc2ccncc2)c1 [Compound 7, N-(3-Methoxyphenyl)-4-pyridinamine] | 23 | 62 | 31 | 
23 | Clc1cccc(Nc2ccncc2)c1 [Compound 4, N-(3-Chlorophenyl)-4-pyridinamine] | 0 | 27 | 75 | IC50 [2]: 7.5 µM; minimal effective dose [4]: 3.2 mg/kg; selectivity for binding at the α2-adrenergic site ([3]; from data in Table 2): high degree of selectivity for binding at the α2-adrenergic site; α1/α2 [3]: 56; IC50 [3]: 133 nM
24 | COC(=O)N(c1ccncc1)c1ccc(C)cc1 [Compound 19, (4-Methylphenyl)-4-pyridinylcarbamic acid, methyl ester] |  |  |  | inhibition in vivo at 0.32 mg/kg ([1]; sc): 36%; inhibition in vivo at 3.2 mg/kg ([1]; sc): 20%; inhibition in vivo at 32 mg/kg ([1]; sc): 17%
25 | COC(=O)N(c1ccncc1)c1ccc(Cl)c(Cl)c1 [Compound 20, (3,4-Dichlorophenyl)-4-pyridinylcarbamic acid, methyl ester] |  |  |  | inhibition in vivo at 0.32 mg/kg ([1]; sc): 6%; inhibition in vivo at 3.2 mg/kg ([1]; sc): 0%; inhibition in vivo at 32 mg/kg ([1]; sc): 9%
